# From patent US20140255517A1, “MANAGING POST-TRAUMATIC STRESS DISORDER” (EMORY UNIVERSITY, priority 2013, published 2014)
# “Also recorded” adds a separate entry of the source.
# What was measured:
# Format in all cases: in vivo, mice
# corticosterone = assay: Plasma corticosterone after 30 minutes of restraint stress; conditions: losartan for 2 weeks vs vehicle; 30 minutes restraint stress
# Method: (§1) The hypothalamic pituitary axis (HPA) stress axis could influence the level of learned fear. In order to examine the chronic effects of losartan on the HPA, stress response was examined as well as plasma renin, a measure of endogenous angiotensin II activity. Animals were exposed to 30 minutes of restraint stress and plasma levels of corticosterone and renin measured.
# [1] = system: animal model of PTSD-like symptoms; assay: Cued Pavlovian fear conditioning and extinction after chronic losartan infusion by osmotic mini-pump
# Method: Extinction training/fear expression was tested and total average freezing within the session (B) and represented in blocks of 5 CS tones (C) 24 hr following fear acquisition.
# The chronic effects of AT1 R antagonism on the extinction of fear to were examined. Two-week osmotic mini-pumps were implanted and losartan (10 mg/kg/day) was subcutaneously infused. […] On day 10, animals underwent Pavlovian fear conditioning as described above.
# [2] = Anxiety-like behavior in elevated plus maze and open field tests
# Method: Distance traveled during open-field testing (B) and percent time in open arms of elevated plus maze test of vehicle (C) (n=6-8/group). To determine whether losartan affects baseline levels of generalized anxiety, animals were tested in the elevated plus and open field mazes.
# plasma renin = assay: Plasma renin activity after 30 minutes of restraint stress; conditions: losartan for 2 weeks vs vehicle; 30 minutes restraint stress
# Method: as §1
# (§2) As an index of central HPA neuronal activation, c-Fos activation was then examined in the paraventricular nucleus (PVN).
# c-Fos = c-Fos activation in the paraventricular nucleus after restraint stress; conditions: chronic losartan vs vehicle, t(10)=2.3, P<0.05
# Description: as §2
# [3] = Baseline blood pressure measured by radiotelemetry
# Method: Distance traveled during open-field testing (B) and percent time in open arms of elevated plus maze test of vehicle (C) (n=6-8/group).
# In order to determine whether inhibition of the renin-angiotensin system is involved in modulating fear directly or indirectly, both acute and chronic inhibition of the angiotensin type 1 receptor (AT1R) were examined using the AT1R antagonist losartan (1 mg/kg and 10 mg/kg). […] A dose of 10 mg/kg is commonly used in rodents, however the effects on baseline blood pressure are mixed. When given acutely or chronically, some studies show reductions in baseline blood pressure while others show no effect.
# AT1R mRNA = assay: Amygdala AT1R mRNA expression after extinction training (RT-qPCR); conditions: chronic losartan vs vehicle, following extinction training; t(11)=2.8, P<0.05
# [4] = system: animal model of PTSD-like symptoms; assay: Cued Pavlovian fear conditioning, extinction training and extinction retention after acute losartan
# Method: 24 hr following fear acquisition, losartan (1 mg/kg or 10 mg/kg i.p) was given prior to extinction training (B, E; n=20-25/group). 24 hr following extinction training, and in the absence of drug, mice were tested for extinction retention of learned fear, expressed as total average freezing and in blocks of 5 CS tones (C,D,F,G). To further understand the mechanism by which angiotensin II blockers reduce PTSD symptoms, the effects of the selective AT1R antagonist losartan were examined in an animal model of PTSD-like symptoms. Animals were cue-fear trained using Pavlovian fear conditioning consisting of five pairings of a conditioned stimulus (CS) tone (12 kHz) co-terminating with a shock or unconditioned stimulus (US). […] Twenty-four hours later, the effects of losartan were examined on fear expression (also considered the extinction training session) to the presentation of 15 trials of CS cues in a different context. Groups were given either losartan (1 mg/kg or 10 mg/kg i.p.) or saline 40 minutes prior to fear expression/extinction training. […] Therefore in a separate group of animals, a higher dose of losartan (10 mg/kg i.p.) was examined. […] Twenty-four hours later in the absence of drug, long-term fear memory was assessed (extinction retention).
# [5] = chronic losartan 10 mg/kg/day vs vehicle
structure (smiles),measurement,setting,value
CCCCc1nc(Cl)c(CO)n1Cc1ccc(-c2ccccc2-c2nn[nH]n2)cc1 [losartan],plasma corticosterone levels following restraint stress,corticosterone,unaltered by losartan
same,acquisition of fear (percent freezing),"[1]; losartan 10 mg/kg/day subcutaneous infusion, conditioning on day 10, vs vehicle",no difference in the acquisition of fear; also recorded: acquired fear similarly to control groups
same,fear expression: total average freezing or blocks of 5 CS trials,"[1]; losartan 10 mg/kg/day subcutaneous infusion, 24 hrs after fear acquisition",no significant difference in total average freezing
same,extinction retention of fear memory over the total average freezing period,"[1]; losartan 10 mg/kg/day subcutaneous infusion, t(35)=2.4, P<0.05",enhanced extinction retention of fear memory
same,"freezing to CS presentation during extinction retention testing (repeated-measures ANOVA, main effect of treatment)","[1]; losartan 10 mg/kg/day, F1,108=8.8, P<0.005",significantly less freezing to CS presentation
same,freezing in blocks of five CS tone presentations during extinction retention (Bonferroni post hoc),"[1]; losartan 10 mg/kg/day, P<0.05",significant reductions in freezing during the second block
same,"anxiety-like behavior (distance traveled, time spent in open arms)","[2]; acute losartan 10 mg/kg i.p. 40 minutes prior to test, vs saline",No differences in anxiety-like behavior
same,"generalized anxiety (percent time in center and distance traveled, open field test)",[2]; [5],no differences between groups
same,plasma renin activity following restraint stress,plasma renin,unchanged by losartan
same,c-Fos activation in the paraventricular nucleus (PVN),c-Fos,reduced c-Fos activation in the PVN; also recorded: less c-Fos activation in the paraventricular nucleus
same,baseline blood pressure,[3]; acute losartan 10 mg/kg i.p. vs saline,no effect on baseline blood pressure
same,baseline blood pressure,[3]; [5],no differences between groups
same,amygdala AT1R mRNA expression,AT1R mRNA,significantly reduced amygdala AT1R mRNA expression; also recorded: decreased amygdala AT1 receptor mRNA expression
same,total average freezing during extinction training/fear expression,"[4]; losartan 1 mg/kg i.p. 40 minutes prior to extinction training, vs saline",no difference in total average freezing
same,freezing during extinction retention testing,"[4]; losartan 1 mg/kg i.p., tested 24 hours after extinction training in the absence of drug, vs saline",no freezing differences between groups
same,total average freezing during extinction training/fear expression,"[4]; losartan 10 mg/kg i.p. 40 minutes prior to extinction training, vs saline",no differences between groups in total average freezing
same,total overall freezing during extinction retention,"[4]; losartan 10 mg/kg i.p., 24 hours later in the absence of drug, t(48)=2.9, P<0.01",total overall freezing was significantly reduced
same,"freezing to CS presentation during extinction retention testing (repeated-measures 2 way ANOVA, main effect of treatment)","[4]; losartan 10 mg/kg i.p., F1,144=14.6, P<0.001",significantly less freezing to CS presentation
same,freezing in blocks of five CS tone presentations during extinction retention (Bonferroni post hoc),"[4]; losartan 10 mg/kg i.p., P<0.05",significant reductions in freezing during the first and third blocks
